Measured values: patent publication US10738028B2, “Spiro three-membered ring, spiro five-membered ring peptide deformylase inhibitor and use thereof in antibacteria and anti-tumor” (priority 2016, dated 2020)

Columns and labels:
Format in all cases: cell-based
[1] = system: HCT-116 colorectal cancer cell line; assay: CCK-8 proliferation inhibition; conditions: Homo sapiens, HCT-116, 72 h, concentration of 30 μM; 72 hours; CCK-8; read-out: HCT116 inhibition rate/%
In short: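 HCT-116 cells, seeded at 2000 cells/well in McCoy's 5A with 10% newborn bovine serum, were cultured overnight at 37° C., 5% CO2, then exposed to compound dilutions in medium for 72 hours. Viability was read with 1:10 diluted CCK-8; controls received 1‰ DMSO.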

[2] = system: Enterococcus faecium (EFM); assay: MIC, two-fold agar dilution (CLSI), clinical isolates; conditions: for Anti-bacterial activity (MIC), strain EFM 15-1: clinical isolate EFM 15-1; for Anti-bacterial activity (MIC), strain EFM 15-2: clinical isolate EFM 15-2; for Anti-bacterial activity (MIC), strain EFM 15-3: clinical isolate EFM 15-3; for Anti-bacterial activity (MIC), strain EFM 15-4: clinical isolate EFM 15-4; for Anti-bacterial activity (MIC), strain EFM 15-5: clinical isolate EFM 15-5; for Anti-bacterial activity (MIC), strain EFM 15-6: clinical isolate EFM 15-6
In short: (§1)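 Susceptibility was tested using CLSI two-fold agar dilution against the strains examined.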

[3] = system: methicillin-sensitive Staphylococcus epidermidis (MSSE); assay: as above; conditions: for Anti-bacterial activity (MIC), strain MSSE 15-3: clinical isolate MSSE 15-3; for Anti-bacterial activity (MIC), strain MSSE 15-4: clinical isolate MSSE 15-4; for Anti-bacterial activity (MIC), strain MSSE 15-5: clinical isolate MSSE 15-5; for Anti-bacterial activity (MIC), strain MSSE 15-6: clinical isolate MSSE 15-6
In short: as §1

[4] = system: methicillin-sensitive Staphylococcus aureus (MSSA); assay: as above; conditions: for Anti-bacterial activity (MIC), strain MSSA 15-3: clinical isolate MSSA 15-3; for Anti-bacterial activity (MIC), strain MSSA 15-4: clinical isolate MSSA 15-4; for Anti-bacterial activity (MIC), strain MSSA 15-5: clinical isolate MSSA 15-5; for Anti-bacterial activity (MIC), strain MSSA 15-6: clinical isolate MSSA 15-6
In short: as §1

[5] = system: Moraxella catarrhalis (BCA); assay: as above; conditions: for Anti-bacterial activity (MIC), strain BCA 14-1: clinical isolate BCA 14-1; for Anti-bacterial activity (MIC), strain BCA 14-4: clinical isolate BCA 14-4; for Anti-bacterial activity (MIC), strain BCA 14-5: clinical isolate BCA 14-5; for Anti-bacterial activity (MIC), strain BCA 14-6: clinical isolate BCA 14-6; for Anti-bacterial activity (MIC), strain BCA 14-7: clinical isolate BCA 14-7; for Anti-bacterial activity (MIC), strain BCA 14-8: clinical isolate BCA 14-8; for Anti-bacterial activity (MIC), strain BCA 14-10: clinical isolate BCA 14-10
In short: as §1

[6] = system: Escherichia coli (including ESBLs, non-ESBLs); assay: as above; conditions: for Anti-bacterial activity (MIC), strain ECO+ 15-1: clinical isolate ECO+ 15-1; for Anti-bacterial activity (MIC), strain ECO+ 15-2: clinical isolate ECO+ 15-2; for Anti-bacterial activity (MIC), strain ECO+ 15-3: clinical isolate ECO+ 15-3; for Anti-bacterial activity (MIC), strain ECO+ 15-4: clinical isolate ECO+ 15-4; for Anti-bacterial activity (MIC), strain ECO− 15-1: clinical isolate ECO− 15-1; for Anti-bacterial activity (MIC), strain ECO− 15-2: clinical isolate ECO− 15-2; for Anti-bacterial activity (MIC), strain ECO− 15-3: clinical isolate ECO− 15-3; for Anti-bacterial activity (MIC), strain ECO− 15-4: clinical isolate ECO− 15-4
In short: as §1

[7] = system: Streptococcus pneoumoniae (SPN); assay: as above; conditions: for Anti-bacterial activity (MIC), strain SPN 16-2: clinical isolate SPN 16-2; for Anti-bacterial activity (MIC), strain SPN 16-4: clinical isolate SPN 16-4
In short: as §1

[8] = system: Enterococcus faecalis (EFA); assay: as above; conditions: for Anti-bacterial activity (MIC), strain EFA 15-1: clinical isolate EFA 15-1; for Anti-bacterial activity (MIC), strain EFA 15-2: clinical isolate EFA 15-2; for Anti-bacterial activity (MIC), strain EFA 15-3: clinical isolate EFA 15-3; for Anti-bacterial activity (MIC), strain EFA 15-4: clinical isolate EFA 15-4; for Anti-bacterial activity (MIC), strain EFA 15-5: clinical isolate EFA 15-5; for Anti-bacterial activity (MIC), strain EFA 15-6: clinical isolate EFA 15-6; for Anti-bacterial activity (MIC), strain EFA 15-9: clinical isolate EFA 15-9
In short: as §1

[9] = system: methicillin-resistant Staphylococcus aureus (MRSA); assay: as above; conditions: for Anti-bacterial activity (MIC), strain MRSA 15-1: clinical isolate MRSA 15-1; for Anti-bacterial activity (MIC), strain MRSA 15-2: clinical isolate MRSA 15-2; for Anti-bacterial activity (MIC), strain MRSA 15-3: clinical isolate MRSA 15-3; for Anti-bacterial activity (MIC), strain MRSA 15-4: clinical isolate MRSA 15-4
In short: as §1

[10] = system: methicillin-resistant Staphylococcus epidermidis (MRSE); assay: as above; conditions: for Anti-bacterial activity (MIC), strain MRSE 15-1: clinical isolate MRSE 15-1; for Anti-bacterial activity (MIC), strain MRSE 15-2: clinical isolate MRSE 15-2; for Anti-bacterial activity (MIC), strain MRSE 15-3: clinical isolate MRSE 15-3; for Anti-bacterial activity (MIC), strain MRSE 15-7: clinical isolate MRSE 15-7
In short: as §1

Compound `O=CN(O)C[C@@H](CC1CCCC1)C(=O)N1CC2(CC2)C[C@H]1c1nc2ccccc2[nH]1` [Example 42, N—((R)-3-((S)-6-(1H-benzimidazol-2-yl)-5-azaspiro[2.4]heptane-5-yl)-2-(cyclopentylmethyl)-3-propylcarbonyl)-N-hydroxyformamide] has an inhibition at 30 µM [1] of 14%, an Anti-bacterial activity (MIC), strain EFM 15-1 [2] of 2 µg/mL and an Anti-bacterial activity (MIC), strain EFM 15-2 [2] of 4 µg/mL. It also gave an Anti-bacterial activity (MIC), strain EFM 15-3 [2] of 1 µg/mL, an Anti-bacterial activity (MIC), strain EFM 15-4 [2] of 4 µg/mL and an Anti-bacterial activity (MIC), strain EFM 15-5 [2] of 2 µg/mL. It also gave an Anti-bacterial activity (MIC), strain EFM 15-6 [2] of 4 µg/mL, an Anti-bacterial activity (MIC), strain MSSE 15-3 [3] of 2 µg/mL and an Anti-bacterial activity (MIC), strain MSSE 15-4 [3] of 2 µg/mL. The Anti-bacterial activity (MIC), strain MSSE 15-5 [3] was 2 µg/mL, the Anti-bacterial activity (MIC), strain MSSE 15-6 [3] was 2 µg/mL and the Anti-bacterial activity (MIC), strain MSSA 15-3 [4] was 2 µg/mL. For the same compound, the Anti-bacterial activity (MIC), strain MSSA 15-4 [4] was 2 µg/mL, the Anti-bacterial activity (MIC), strain MSSA 15-5 [4] was 1 µg/mL and the Anti-bacterial activity (MIC), strain MSSA 15-6 [4] was 2 µg/mL. The Anti-bacterial activity (MIC), strain BCA 14-1 [5] was 1 µg/mL, the Anti-bacterial activity (MIC), strain BCA 14-4 [5] was 2 µg/mL and the Anti-bacterial activity (MIC), strain BCA 14-5 [5] was 2 µg/mL. It also gave an Anti-bacterial activity (MIC), strain BCA 14-6 [5] of 2 µg/mL, an Anti-bacterial activity (MIC), strain BCA 14-7 [5] of 1 µg/mL and an Anti-bacterial activity (MIC), strain BCA 14-8 [5] of 4 µg/mL. For the same compound, the Anti-bacterial activity (MIC), strain BCA 14-10 [5] was 1 µg/mL, the Anti-bacterial activity (MIC), strain ECO+ 15-1 [6] was 16 µg/mL and the Anti-bacterial activity (MIC), strain ECO+ 15-2 [6] was 32 µg/mL. The Anti-bacterial activity (MIC), strain ECO+ 15-3 [6] was 32 µg/mL, the Anti-bacterial activity (MIC), strain ECO+ 15-4 [6] was 16 µg/mL and the Anti-bacterial activity (MIC), strain ECO− 15-1 [6] was 32 µg/mL. For the same compound, the Anti-bacterial activity (MIC), strain ECO− 15-2 [6] was 32 µg/mL, the Anti-bacterial activity (MIC), strain ECO− 15-3 [6] was 32 µg/mL and the Anti-bacterial activity (MIC), strain ECO− 15-4 [6] was 32 µg/mL. For the same compound, the Anti-bacterial activity (MIC), strain SPN 16-2 [7] was 1 µg/mL, the Anti-bacterial activity (MIC), strain SPN 16-4 [7] was 16 µg/mL and the Anti-bacterial activity (MIC), strain EFA 15-1 [8] was 16 µg/mL. For the same compound, the Anti-bacterial activity (MIC), strain EFA 15-2 [8] was 16 µg/mL, the Anti-bacterial activity (MIC), strain EFA 15-3 [8] was 4 µg/mL and the Anti-bacterial activity (MIC), strain EFA 15-4 [8] was 16 µg/mL. It also gave an Anti-bacterial activity (MIC), strain EFA 15-5 [8] of 16 µg/mL, an Anti-bacterial activity (MIC), strain EFA 15-6 [8] of 16 µg/mL and an Anti-bacterial activity (MIC), strain EFA 15-9 [8] of 16 µg/mL. For the same compound, the Anti-bacterial activity (MIC), strain MRSA 15-1 [9] was 2 µg/mL, the Anti-bacterial activity (MIC), strain MRSA 15-2 [9] was 2 µg/mL and the Anti-bacterial activity (MIC), strain MRSA 15-3 [9] was 1 µg/mL. For the same compound, the Anti-bacterial activity (MIC), strain MRSA 15-4 [9] was 1 µg/mL, the Anti-bacterial activity (MIC), strain MRSE 15-1 [10] was 2 µg/mL and the Anti-bacterial activity (MIC), strain MRSE 15-2 [10] was 2 µg/mL. The Anti-bacterial activity (MIC), strain MRSE 15-3 [10] was 2 µg/mL and the Anti-bacterial activity (MIC), strain MRSE 15-7 [10] was 2 µg/mL.
`CCCC[C@H](CC(=O)NO)C(=O)N1CC2(CC2)C[C@H]1C(=O)Nc1ccc(N2CCOCC2)cc1` [Example 43, (S)-5-((R)-2-(2-(hydroxyamino)-2-oxoethyl)hexanoyl)-N-(4-morpholinophenyl)-5-spiro[2.4]heptane-6-carboxamide] showed an inhibition at 30 µM [1] of 6%, an Anti-bacterial activity (MIC), strain EFM 15-1 [2] of over 32 µg/mL and an Anti-bacterial activity (MIC), strain EFM 15-2 [2] of over 32 µg/mL. The Anti-bacterial activity (MIC), strain EFM 15-3 [2] was over 32 µg/mL, the Anti-bacterial activity (MIC), strain EFM 15-4 [2] was over 32 µg/mL and the Anti-bacterial activity (MIC), strain EFM 15-5 [2] was 1 µg/mL. For the same compound, the Anti-bacterial activity (MIC), strain EFM 15-6 [2] was 2 µg/mL, the Anti-bacterial activity (MIC), strain MSSE 15-3 [3] was 1 µg/mL and the Anti-bacterial activity (MIC), strain MSSE 15-4 [3] was 1 µg/mL. For the same compound, the Anti-bacterial activity (MIC), strain MSSE 15-5 [3] was 1 µg/mL, the Anti-bacterial activity (MIC), strain MSSE 15-6 [3] was 1 µg/mL and the Anti-bacterial activity (MIC), strain MSSA 15-3 [4] was 4 µg/mL. The Anti-bacterial activity (MIC), strain MSSA 15-4 [4] was 4 µg/mL, the Anti-bacterial activity (MIC), strain MSSA 15-5 [4] was 1 µg/mL and the Anti-bacterial activity (MIC), strain MSSA 15-6 [4] was 4 µg/mL. The Anti-bacterial activity (MIC), strain BCA 14-1 [5] was 2 µg/mL, the Anti-bacterial activity (MIC), strain BCA 14-4 [5] was 2 µg/mL and the Anti-bacterial activity (MIC), strain BCA 14-5 [5] was 1 µg/mL. The Anti-bacterial activity (MIC), strain BCA 14-6 [5] was 1 µg/mL, the Anti-bacterial activity (MIC), strain BCA 14-7 [5] was 2 µg/mL and the Anti-bacterial activity (MIC), strain BCA 14-8 [5] was 2 µg/mL. The Anti-bacterial activity (MIC), strain BCA 14-10 [5] was 2 µg/mL, the Anti-bacterial activity (MIC), strain ECO+ 15-1 [6] was 1 µg/mL and the Anti-bacterial activity (MIC), strain ECO+ 15-2 [6] was over 32 µg/mL. The Anti-bacterial activity (MIC), strain ECO+ 15-3 [6] was over 32 µg/mL, the Anti-bacterial activity (MIC), strain ECO+ 15-4 [6] was 1 µg/mL and the Anti-bacterial activity (MIC), strain ECO− 15-1 [6] was over 32 µg/mL. It also gave an Anti-bacterial activity (MIC), strain ECO− 15-2 [6] of over 32 µg/mL, an Anti-bacterial activity (MIC), strain ECO− 15-3 [6] of over 32 µg/mL and an Anti-bacterial activity (MIC), strain ECO− 15-4 [6] of over 32 µg/mL. For the same compound, the Anti-bacterial activity (MIC), strain SPN 16-2 [7] was 1 µg/mL, the Anti-bacterial activity (MIC), strain SPN 16-4 [7] was 1 µg/mL and the Anti-bacterial activity (MIC), strain EFA 15-1 [8] was over 32 µg/mL. For the same compound, the Anti-bacterial activity (MIC), strain EFA 15-2 [8] was over 32 µg/mL, the Anti-bacterial activity (MIC), strain EFA 15-3 [8] was over 32 µg/mL and the Anti-bacterial activity (MIC), strain EFA 15-4 [8] was over 32 µg/mL. The Anti-bacterial activity (MIC), strain EFA 15-5 [8] was over 32 µg/mL, the Anti-bacterial activity (MIC), strain EFA 15-6 [8] was over 32 µg/mL and the Anti-bacterial activity (MIC), strain EFA 15-9 [8] was over 32 µg/mL. It also gave an Anti-bacterial activity (MIC), strain MRSA 15-1 [9] of 1 µg/mL, an Anti-bacterial activity (MIC), strain MRSA 15-2 [9] of 4 µg/mL and an Anti-bacterial activity (MIC), strain MRSA 15-3 [9] of 1 µg/mL. For the same compound, the Anti-bacterial activity (MIC), strain MRSA 15-4 [9] was 4 µg/mL, the Anti-bacterial activity (MIC), strain MRSE 15-1 [10] was 1 µg/mL and the Anti-bacterial activity (MIC), strain MRSE 15-2 [10] was 4 µg/mL. The Anti-bacterial activity (MIC), strain MRSE 15-3 [10] was 4 µg/mL and the Anti-bacterial activity (MIC), strain MRSE 15-7 [10] was 1 µg/mL.
